# US8653111B2, “Substituted dihydropyrazolones for treating cardiovascular and hematological diseases” (Bayer Intellectual Property GmbH, priority 2006, dated 2014)
# Counter-ions that a name gives are not always drawn.
# Target: HIF prolyl hydroxylase
# Assay: Inhibition of the activity of HIF prolyl hydroxylase (VBC complex binding to hydroxylated peptide substrate)
# Assay type: biochemical
# Details: cell lysate containing prolyl hydroxylase, peptide biotin-DLDLEMLAPYIPMDDDFQL as substrate
# Protocol: 1. In vitro Tests for Determination of the Activity and Selectivity of HIF Prolyl 4-Hydroxylase Inhibitors 1.a) Inhibition of the Activity of HIF Prolyl Hydroxylase:
# Hydroxylated HIF bonds specifically to the von Hippel-Lindau protein-elongin B-elongin C complex (VBC complex). This interaction occurs only if HIF is hydroxylated on a conserved prolyl radical. It is the basis for the biochemical determination of HIF prolyl hydroxylase activity. The test is carried out as described [Oehme F., Jonghaus W., Narouz-Ott L., Huetter J., Flamme I., Anal. Biochem. 330 (1), 74-80 (2004)]:
# A clear 96-well microtiter plate coated with NeutrAvidin HBC (Pierce) is incubated with blocker casein for 30 minutes. The plate is then washed three times with 200 μl each time of wash buffer (50 mM Tris, pH 7.5, 100 mM NaCl, 10% (v/v) blocker casein, 0.05% (v/v) Tween 20) per well. The peptide biotin-DLDLEMLAPYIPMDDDFQL (Eurogentec, 4102 Seraing, Belgium) is added in a concentration of 400 nM in 100 μl wash buffer. This peptide serves as a substrate for the prolyl hydroxylation and is bonded to the microtiter plate. After incubation for 60 minutes, the plate is washed three times with wash buffer, incubated with 1 mM biotin in blocker casein for 30 minutes and then washed again three times with wash buffer.
# To carry out the prolyl hydroxylase reaction, the peptide substrate bonded to the plate is incubated with a cell lysate containing prolyl hydroxylase for 1 to 60 minutes. The reaction takes place in 100 μl reaction buffer (20 mM Tris, pH 7.5, 5 mM KCl, 1.5 mM MgCl2, 1 μM-1 mM 2-oxoglutarate, 10 μM FeSO4, 2 mM ascorbate) at room temperature. The reaction mixture moreover contains various concentrations of the prolyl hydroxylase inhibitor to be tested. The test substance is preferably, but not exclusively, employed at concentrations of between 1 nM and 100 μM. The reaction is stopped by washing the plate three times with wash buffer.
# For quantitative determination of the prolyl hydroxylation, a fusion protein which contains both thioredoxin from E. coli and the VBC complex in 80 μl bonding buffer (50 mM Tris, pH 7.5, 120 mM NaCl) is added. After 15 minutes, 10 μl of a solution of polyclonal anti-thioredoxin antibodies from rabbit in bonding buffer are added. After a further 30 minutes, 10 μl of a solution of anti-rabbit immunoglobulin coupled to horseradish peroxidase in bonding buffer are added. After incubation at room temperature for 30 minutes, the plate is washed three times with wash buffer in order to remove non-bonded VBC complex and antibodies. To determine the amount of bonded VBC complex, the plate is incubated with TMB for 15 minutes. The color reaction is ended by addition of 100 μl 1 M sulfuric acid. The amount of bonded VBC complex is determined by measurement of the optical density at 450 nm. It is proportional to the amount of hydroxylated proline in the peptide substrate.
# Alternatively, a VBC complex coupled to europium (Perkin Elmer) can be used for detection of the prolyl hydroxylation. In this case, the amount of bonded VBC complex is determined by the fluorescence with respect to time. The use of VBC complex labeled with [^35S]-methionine is moreover possible. For this, the radioactively labeled VBC complex can be prepared by in vitro transcription-translation in reticulocyte lysate.
row,Structure (SMILES),IC50 [nM]
1,O=c1c(-c2nnc(C(F)(F)F)s2)c[nH]n1-c1ccccn1 [Example 5],1200
2,"Cc1ccnc(-n2[nH]cc(-n3ccnn3)c2=O)c1 [Example 7, 2-(4-Methylpyridin-2-yl)-4-(1H-1,2,3-triazol-1-yl)-1,2-dihydro-3H-pyrazol-3-one hydrochloride]",340
3,"O=c1c(-n2ccnc2)c[nH]n1-c1cc(N2CCCCC2)ncn1 [Example 10, 4-(1H-Imidazol-1-yl)-2-(6-piperidin-1-ylpyrimidin-4-yl)-1,2-dihydro-3H-pyrazol-3-one]",500
4,"O=c1c(-n2cnc(C(F)(F)F)c2)c[nH]n1-c1ccc(CO)cn1 [Example 12, 2-[5-(Hydroxymethyl)pyridin-2-yl]-4-[4-(trifluoromethyl)-1H-imidazol-1-yl]-1,2-dihydro-3H-pyrazol-3-one]",750
5,"O=c1c(-n2ccnn2)c[nH]n1-c1cc(C2CC2)ncn1 [Example 17, 2-(6-Cyclopropylpyrimidin-4-yl)-4-(1H-1,2,3-triazol-1-yl)-1,2-dihydro-3H-pyrazol-3-one hydrochloride]",560
6,Cc1cn(-c2c[nH]n(-c3cnccn3)c2=O)nn1 [Example 43],1800
7,CC(C)c1cn(-c2c[nH]n(-c3ccc(CO)cn3)c2=O)nn1 [Example 45],780
8,Cc1cc(-c2c[nH]n(-c3ccccn3)c2=O)on1 [Example 50],1400
9,CCc1cc(-n2[nH]cc(-n3cnc(C(F)(F)F)c3)c2=O)ncn1 [Example 60],1400
10,Cc1cc(-n2[nH]cc(-n3ccnn3)c2=O)ncc1Br [Example 61],1100
11,"CC(C)(C)OC(=O)c1ccc(-n2[nH]cc(-n3ccnn3)c2=O)nc1 [Example 62, 6-[5-Oxo-4-(1H-1,2,3-triazol-1-yl)-2,5-dihydro-1H-pyrazol-1-yl]pyridine-3-carboxylic acid tert-butyl ester hydrochloride]",50
12,"O=c1c(-n2ccnn2)c[nH]n1-c1cc(N2CCOCC2)ncn1 [Example 72, 2-(6-Morpholin-4-ylpyrimidin-4-yl)-4-(1H-1,2,3-triazol-1-yl)-1,2-dihydro-3H-pyrazol-3-one hydrochloride]",490

# Continued, values first:
row,IC50 [nM],Structure (SMILES)
1,1900,"O=c1c(-n2ccnn2)c[nH]n1-c1cc(C(F)(F)F)ccn1 [Example 83, 4-(1H-1,2,3-Triazol-1-yl)-2-[4-(trifluoromethyl)pyridin-2-yl]-1,2-dihydro-3H-pyrazol-3-one hydrochloride]"
2,190,"CC(C)(C)COc1ccc(-n2[nH]cc(-n3ccnn3)c2=O)nc1 [Example 85, 2-[5-(2,2-Dimethylpropoxy)pyridin-2-yl]-4-(1H-1,2,3-triazol-1-yl)-1,2-dihydro-3H-pyrazol-3-one hydrochloride]"
3,2800,"Cc1cnc(-n2[nH]cc(-n3ccnc3)c2=O)cc1C [Example 91, 2-(4,5-Dimethylpyridin-2-yl)-4-(1H-imidazol-1-yl)-1,2-dihydro-3H-pyrazol-3-one hydrochloride]"
4,1700,"O=c1c(-n2ccnc2)c[nH]n1-c1cc(N2CC(O)C2)ncn1 [Example 101, 2-[6-(3-Hydroxyazetidin-1-yl)pyrimidin-4-yl]-4-(1H-imidazol-1-yl)-1,2-dihydro-3H-pyrazol-3-one hydrochloride]"
5,350,"CCSc1cc(-n2[nH]cc(-n3ccnn3)c2=O)ncn1 [Example 103, 2-[6-(Ethylsulfanyl)pyrimidin-4-yl]-4-(1H-1,2,3-triazol-1-yl)-1,2-dihydro-3H-pyrazol-3-one hydrochloride]"
6,740,O=c1c(-n2ccnn2)c[nH]n1-c1cc(N2CCSCC2)ncn1 [Example 113]
7,360,CC1CCN(c2cc(-n3[nH]cc(-n4ccnn4)c3=O)ncn2)CC1 [Example 129]
8,690,COC1CCCN(c2cc(-n3[nH]cc(-n4ccnc4)c3=O)ncn2)C1 (centres unmarked) [Example 166]
